# Measured values taken from US20250387388A1, “COMPOUND AS TRK INHIBITOR AND/OR RET INHIBITOR AND USE THEREOF” (Medinno Pharmaceutical Technology (Zhuhai) Co., Ltd., priority 2022, published 2025).
# Read-outs that look alike come from different tables or passages of the source.
# Legend:
# [1] = target: TRKA (Homo sapiens (Human), UniProt P04629); experiment: Inhibitory activity on TRKA (ADP-Glo Kinase Assay)
# [2] = target: RET (Homo sapiens (Human), UniProt P07949); experiment: Inhibitory activity on RET kinase (HTRF KinEASE-TK); assay type: biochemical; details: ATP 16 μM
# Text: 3) Formulate 2.5× kinase with 1× kinase reaction buffer.
# [3] = target: TRKC (Homo sapiens (Human), UniProt Q16288); experiment: Inhibitory activity on TRKC (ADP-Glo Kinase Assay)
# [4] = target: TRKB (Homo sapiens (Human), UniProt Q16620); experiment: Inhibitory activity on TRKB (ADP-Glo Kinase Assay)
# [5] = system: allergic rhinitis model in mice; experiment: Allergic rhinitis model in mice (OVA); assay type: in vivo, BALB/C mice; details: MDI-1288 3 mg/kg, nasal drops twice a day
# Experimental: 42-49 day-old BALB/C mice (Manufacturer: Liaoning Changsheng Biotechnology Co., Ltd., License Number: SCXK(therapeutic)2015-0001), both male and female, were reared under conventional diet, at a temperature of 20 to 26° C., and a humidity of 40% to 70%. Animal grouping and modeling: • 1. Blank control group (no treatment) • 2. Allergic rhinitis group (vehicle treatment: saline containing 0.2% Tween 80) • 3. Allergic rhinitis+compound MDI-1233: 1 mg/kg • 4. Allergic rhinitis+compound MDI-1233: 3 mg/kg • 5. Allergic rhinitis+compound MDI-1233: 10 mg/kg • 6. Allergic rhinitis+compound MDI-1228: 3 mg/kg • 7. Allergic rhinitis+compound MDI-1288: 3 mg/kg • 8. Allergic rhinitis+positive control group (Fluticasone propionate, GlaxoSmithKline, E88D
# The preparation of an AR model in mice involved sensitizing and challenging BALB/c mice with ovalbumin (OVA) to simulate an acute symptoms caused by natural exposure to an allergen. The experimental animals were weighed and separated by gender. Sensitization was performed on days 1, 5, 9, and 12. From day 13, a daily challenge was carried out for 7 consecutive days. After the last challenge, behavior of the mice was observed and scored. The sensitization method involved intraperitoneal injection of an OVA (Sigma, A5503-1G) suspension in 50 μg/ml in which the OVA suspension was prepared by dissolving 500 μg of ovalbumin and 50 mg of AL(OH)3 (CAS 21645-51-2) into 10 ml of normal saline, pH 7.4, with 200 μl injected per mouse. […] On day 12, a single nasal challenge with 10% OVA was performed (PBS was used for the control group). Scoring was conducted according to the table below, using a superposition method to calculate the total score. A total score greater than 5 was considered as successful. Subsequent experiments were conducted after the modeling was deemed successful.
# From day 13, compound administration and challenge were conducted. The compound administration method involved calculating the nasal drops volume according to the mouse's body weight and group requirements, and dissolving the compounds MDI-1233, MDI-1228, MDI-1288 into normal saline containing 0.2% Tween 80 at specific concentrations. The administration was given 30 minutes before the challenge, twice a day. The positive control treatment involved administering nasal drop once (10 μl per side) 30 minutes before OVA nasal stimulation, twice a day. Thirty minutes after the second drug administration, a 10% OVA challenge was conducted, and the amount of nasal discharge, sneezing, and nose scratching were observed and recorded within 30 minutes after each challenge and then scored. The control group was treated with normal saline nasal drops.
# After the rhinitis modeling was completed and the scores were stable, mice of each group were anesthetized and sacrificed after a 20-day scoring. Samples were collected, and peripheral serum was obtained by collecting whole blood, and standing it at room temperature for 1 hour and then centrifuging it to collect the supernatant for ELISA detection; nasal mucosa was taken for HE staining (fixed with 10% formalin); and the supernatant of nasal lavage fluid was taken for ELISA detection.
# (1) HE Staining: The tissue was rinsed with running water for several hours, dehydrated through a series of ethanol solutions (70%, 80%, 90%), and then treated with a mixture of pure alcohol and xylene for 15 minutes, followed by xylene I for 15 minutes and xylene I1 for 15 minutes (until transparent). The tissue was then placed in a mixture of xylene and paraffin at a volume ratio of 1:1 for 15 minutes, followed by immersion with paraffin I and paraffin II each for 50-60 minutes. The tissue was embedded in paraffin and sectioned, and the sections were spreaded, dried, dewaxed and hydrated in distilled water. […]
# Sequence of TRKC (Q16288 32-839): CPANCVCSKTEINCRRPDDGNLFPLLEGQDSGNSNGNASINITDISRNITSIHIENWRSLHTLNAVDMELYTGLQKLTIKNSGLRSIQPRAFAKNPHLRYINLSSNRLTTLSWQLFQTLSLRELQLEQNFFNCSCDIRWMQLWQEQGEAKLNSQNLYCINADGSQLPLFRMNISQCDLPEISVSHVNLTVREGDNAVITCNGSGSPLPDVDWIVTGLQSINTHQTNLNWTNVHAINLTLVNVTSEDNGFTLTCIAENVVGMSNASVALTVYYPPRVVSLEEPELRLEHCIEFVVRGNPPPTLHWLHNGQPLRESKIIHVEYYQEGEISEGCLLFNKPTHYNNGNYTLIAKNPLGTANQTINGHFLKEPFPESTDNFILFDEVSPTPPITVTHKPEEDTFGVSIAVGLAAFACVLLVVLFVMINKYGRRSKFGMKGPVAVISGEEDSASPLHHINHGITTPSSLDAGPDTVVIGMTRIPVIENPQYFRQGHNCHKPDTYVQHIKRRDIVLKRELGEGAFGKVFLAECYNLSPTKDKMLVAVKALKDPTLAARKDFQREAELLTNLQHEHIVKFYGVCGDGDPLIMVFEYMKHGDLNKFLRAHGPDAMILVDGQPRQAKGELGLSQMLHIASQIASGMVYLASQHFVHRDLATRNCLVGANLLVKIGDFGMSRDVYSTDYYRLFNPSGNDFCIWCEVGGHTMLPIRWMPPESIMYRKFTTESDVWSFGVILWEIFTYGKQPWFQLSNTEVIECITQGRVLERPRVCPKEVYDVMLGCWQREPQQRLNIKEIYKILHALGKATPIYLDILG
# Sequence of RET (P07949 29-1114): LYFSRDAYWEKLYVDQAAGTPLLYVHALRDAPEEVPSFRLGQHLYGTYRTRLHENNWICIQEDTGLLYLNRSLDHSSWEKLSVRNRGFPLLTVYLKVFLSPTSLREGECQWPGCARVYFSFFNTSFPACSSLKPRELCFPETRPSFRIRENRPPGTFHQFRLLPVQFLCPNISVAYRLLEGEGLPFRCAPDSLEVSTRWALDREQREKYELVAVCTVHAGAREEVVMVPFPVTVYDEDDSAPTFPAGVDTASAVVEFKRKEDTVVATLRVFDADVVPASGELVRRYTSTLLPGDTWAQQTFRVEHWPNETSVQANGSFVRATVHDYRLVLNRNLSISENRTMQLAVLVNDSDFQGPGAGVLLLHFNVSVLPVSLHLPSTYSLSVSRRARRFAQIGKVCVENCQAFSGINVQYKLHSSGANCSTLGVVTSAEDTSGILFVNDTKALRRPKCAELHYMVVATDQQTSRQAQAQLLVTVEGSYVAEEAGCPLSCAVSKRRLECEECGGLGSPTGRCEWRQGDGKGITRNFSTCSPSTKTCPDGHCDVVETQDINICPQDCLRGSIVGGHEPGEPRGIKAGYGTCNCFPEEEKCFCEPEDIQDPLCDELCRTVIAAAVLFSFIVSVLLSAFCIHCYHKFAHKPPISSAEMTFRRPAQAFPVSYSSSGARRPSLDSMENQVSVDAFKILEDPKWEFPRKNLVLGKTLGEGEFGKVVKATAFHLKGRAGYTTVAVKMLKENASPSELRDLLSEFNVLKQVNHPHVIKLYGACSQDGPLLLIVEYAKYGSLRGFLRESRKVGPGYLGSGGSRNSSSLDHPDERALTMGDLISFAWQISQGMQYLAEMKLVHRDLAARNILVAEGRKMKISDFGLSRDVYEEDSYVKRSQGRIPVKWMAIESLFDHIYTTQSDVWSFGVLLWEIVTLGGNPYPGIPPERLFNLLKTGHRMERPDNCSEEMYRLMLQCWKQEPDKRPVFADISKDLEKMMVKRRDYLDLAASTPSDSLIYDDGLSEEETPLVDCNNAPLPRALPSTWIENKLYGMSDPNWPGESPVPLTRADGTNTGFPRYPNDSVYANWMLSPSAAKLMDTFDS
# Sequence of TRKB (Q16620 32-822): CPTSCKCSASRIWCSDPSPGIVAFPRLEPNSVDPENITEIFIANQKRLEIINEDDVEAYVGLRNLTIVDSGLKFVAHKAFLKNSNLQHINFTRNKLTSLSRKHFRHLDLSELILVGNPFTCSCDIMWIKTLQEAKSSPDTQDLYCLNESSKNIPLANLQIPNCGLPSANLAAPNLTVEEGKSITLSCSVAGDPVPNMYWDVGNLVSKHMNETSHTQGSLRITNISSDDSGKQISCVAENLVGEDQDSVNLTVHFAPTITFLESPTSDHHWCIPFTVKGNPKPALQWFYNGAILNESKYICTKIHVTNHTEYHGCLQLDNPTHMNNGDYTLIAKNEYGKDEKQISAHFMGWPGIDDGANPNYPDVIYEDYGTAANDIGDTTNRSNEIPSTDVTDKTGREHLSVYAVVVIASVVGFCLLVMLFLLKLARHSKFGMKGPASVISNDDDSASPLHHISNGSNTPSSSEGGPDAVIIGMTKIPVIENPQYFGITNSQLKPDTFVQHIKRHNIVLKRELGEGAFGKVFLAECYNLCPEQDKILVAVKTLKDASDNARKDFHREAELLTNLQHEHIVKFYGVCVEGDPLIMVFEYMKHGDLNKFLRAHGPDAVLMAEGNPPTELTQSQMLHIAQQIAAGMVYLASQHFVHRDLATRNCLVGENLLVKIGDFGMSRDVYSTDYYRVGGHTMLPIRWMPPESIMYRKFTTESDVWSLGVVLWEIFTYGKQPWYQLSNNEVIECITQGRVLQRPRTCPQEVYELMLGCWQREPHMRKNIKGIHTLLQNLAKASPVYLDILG
# Sequence of TRKA (P04629 33-796 limits assumed): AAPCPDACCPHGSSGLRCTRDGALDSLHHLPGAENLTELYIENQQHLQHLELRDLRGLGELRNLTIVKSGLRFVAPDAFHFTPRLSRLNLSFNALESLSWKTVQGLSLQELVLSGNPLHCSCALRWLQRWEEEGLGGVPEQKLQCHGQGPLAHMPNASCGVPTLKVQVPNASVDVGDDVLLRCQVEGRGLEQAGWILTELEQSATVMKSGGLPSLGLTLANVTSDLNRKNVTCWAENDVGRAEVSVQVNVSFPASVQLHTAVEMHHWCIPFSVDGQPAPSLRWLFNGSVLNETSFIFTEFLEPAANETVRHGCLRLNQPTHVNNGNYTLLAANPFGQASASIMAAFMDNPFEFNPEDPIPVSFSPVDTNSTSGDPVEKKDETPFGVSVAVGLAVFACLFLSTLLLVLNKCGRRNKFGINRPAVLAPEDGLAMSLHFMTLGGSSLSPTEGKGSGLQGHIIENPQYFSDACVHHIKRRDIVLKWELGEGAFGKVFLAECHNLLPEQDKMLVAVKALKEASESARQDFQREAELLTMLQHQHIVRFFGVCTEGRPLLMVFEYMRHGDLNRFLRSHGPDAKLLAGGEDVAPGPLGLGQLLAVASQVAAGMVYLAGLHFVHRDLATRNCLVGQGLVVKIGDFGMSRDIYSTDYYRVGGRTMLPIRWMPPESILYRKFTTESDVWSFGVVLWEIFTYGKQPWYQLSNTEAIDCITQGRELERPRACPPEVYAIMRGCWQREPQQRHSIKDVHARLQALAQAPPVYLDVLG
IC50 [1] [nM],IC50 [2] [nM],IC50 [3] [nM],IC50 [4] [nM],"IC50 ([1]; read-out: TRKA IC50, ATP 5 μM) [nM]","IC50 ([3]; read-out: TRKC IC50, ATP 5 μM) [nM]","IC50 ([4]; read-out: TRKB IC50, ATP 5 μM) [nM]",Structure (SMILES),Nasal mucosa pathology (HE staining) ([5]; fluticasone propionate 10 μl per side),"Rhinitis behavioral scoring ([5]; 7-day treatment, MDI-1233 10 mg/kg, MDI-1228 3 mg/kg, fluticasone propionate positive control)"
0.57,0.1,0.27,1.39,,,,"CCc1cc(O)c(F)cc1-c1ccc2c(-c3nc4c([nH]3)CN(C(=O)N3CCN(C)CC3)C4)n[nH]c2c1 [MDI-235, (2-(6-(2-ethyl-5-fluoro-4-hydroxyphenyl)-1H-indazol-3-yl)-4,6-dihydropyrrolo[3,4-d]imidazol-5-(1H)-yl)(4-methylpiperazin-1-yl)ketone]",,
0.83,0.99,0.57,3.37,,,,"CCc1cc(O)c(F)cc1-c1ccc2c(-c3nc4c([nH]3)CN(C(=O)N3CCC(O)CC3)C4)n[nH]c2c1 [MDI-245, (2-(6-(2-ethyl-5-fluoro-4-hydroxyphenyl)-1H-indazol-3-yl)-4,6-dihydropyrrolo[3,4-d]imidazol-5(1H)-yl)(4-hydroxylpiperidin-1-yl)ketone]",,
,8.36,,,10.3,3.73,34.2,"CCNC(=O)N1Cc2nc(-c3n[nH]c4cc(-c5cc(F)c(O)cc5CC)ccc34)[nH]c2C1 [MDI-247, 2-(6-(2-ethyl-5-fluoro-4-hydroxyphenyl)-1H-indazol-3-yl)-N-ethyl-4,6-dihydropyrrolo[3,4-d]imidazol-5-(1H)-carboxamide]",,
,,,,,,,"CCC(=O)O[C@]1(C(=O)SCF)[C@H](C)C[C@H]2[C@@H]3C[C@H](F)C4=CC(=O)C=C[C@]4(C)[C@@]3(F)[C@@H](O)C[C@@]21C [fluticasone propionate, reference compound]",inhibited the progression of rhinitis and promoted repair of cilia on the nasal mucosa,significant effects on inhibiting the rhinitis behavior
